Values quoted from earlier work as cited in patent US20040132104A1, “Vitamin D assay” (priority 2003, published 2004).

Target: T1, Vitamin D binding protein (Homo sapiens, UniProt P02774)
T1 sequence (P02774 17-474): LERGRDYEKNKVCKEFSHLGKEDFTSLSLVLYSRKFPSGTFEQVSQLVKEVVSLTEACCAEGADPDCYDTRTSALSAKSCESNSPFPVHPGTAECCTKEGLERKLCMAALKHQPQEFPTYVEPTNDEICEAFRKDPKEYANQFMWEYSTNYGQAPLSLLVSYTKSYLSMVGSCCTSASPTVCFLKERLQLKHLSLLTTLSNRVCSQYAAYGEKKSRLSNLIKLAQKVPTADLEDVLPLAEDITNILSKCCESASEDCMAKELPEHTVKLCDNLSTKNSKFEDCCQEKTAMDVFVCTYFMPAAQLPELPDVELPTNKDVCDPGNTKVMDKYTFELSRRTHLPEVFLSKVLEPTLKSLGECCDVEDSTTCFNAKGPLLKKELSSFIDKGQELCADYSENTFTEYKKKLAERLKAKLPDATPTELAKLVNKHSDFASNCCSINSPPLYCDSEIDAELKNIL
Conditions: Vitamin D binding protein affinity for 25-OH Vitamin D

Substance: 25-hydroxy-vitamin D [25-OH Vitamin D]
- affinity: 5e+08 M⁻¹
